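Five concentrations, 48 hours, 96-well plates. GI50 = concentration required for 50% inhibition of growth. TGI marks complete inhibition of growth.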
How the values were obtained:
Assay in all cases: DTP human tumour cell line panel, 48 h
[1] = tested on: SF-539 CNS
[2] = tested on: SR leukemia
[3] = tested on: RPMI-8226 leukemia
[4] = tested on: HOP-62 NSCLC
[5] = tested on: EKVX NSCLC
[6] = tested on: SK-OV-3 ovarian
[7] = tested on: NCI-H226 lung
[8] = tested on: U251 CNS
[9] = tested on: OVCAR-4 ovarian
[10] = tested on: HCT-15 colon

Row | Structure (SMILES) | GI50 [1] [µM] | TGI [1] [µM] | GI50 [2] [µM] | TGI [2] [µM] | GI50 [3] [µM] | TGI [3] [µM] | GI50 [4] [µM] | TGI [4] [µM] | GI50 [5] [µM] | TGI [5] [µM] | GI50 [6] [µM] | TGI [6] [µM] | GI50 [7] [µM] | TGI [7] [µM] | GI50 [8] [µM] | TGI [8] [µM] | GI50 [9] [µM] | TGI [9] [µM] | GI50 [10] [µM] | TGI [10] [µM]
1 | CCCCCCCCCC(CCCC(O)CC(=O)O)OC1OC(COC2OC(C)C(OC(C)=O)C(O)C2O)C(O)C(O)C1OC1OC(CO)C(O)C(O)C1OC1OC(C)C(OC(=O)CC(C)C)C(O)C1O (stereo unspecified) | > 35 | > 35 | > 35 | > 35 | > 35 | > 35 | > 35 | > 35 | > 35 | > 35 | > 35 | > 35 | > 35 | > 35 | > 35 | > 35 | > 35 | > 35 | > 35 | > 35
2 | O=C1c2cccnc2C(=O)c2c1c(C(=O)NCCn1ccnc1)c1ccccn21 | 2.45 | 6.47 | 2.2 | > 100 | 5.95 | 88.4 | 1.28 | 11.3 | 4.54 | 18.6 | 8.88 | 21.3 | – | – | 2.96 | 9.18 | 1.62 | 3.95 | 3.31 | 15.1
3 | COc1cc(/C=C/C(=O)/C=C/c2cc3ccc(Cl)cc3n(Cc3ccccc3)c2=O)ccc1O | 1.62 | 3.53 | 0.457 | > 100 | 1.23 | 10.9 | 2.75 | 7.08 | 2.11 | 4.67 | 5.95 | 57.1 | 2.02 | 4.66 | 1.17 | 2.55 | 2.48 | 37.8 | 1.24 | 4.01
4 | Cc1nc(-c2cnc(NC(C)C)n(C)c2=O)ccc1Oc1ccnc(-c2cnn(C)c2)c1 | 7.5 | 46.8 | 2.99 | 29.1 | 8.49 | 81.7 | 12.7 | > 100 | 10.4 | 99.7 | 23.5 | > 100 | 14.9 | 99.1 | 15.6 | > 100 | 7.28 | > 100 | 5.51 | > 100
5 | CCOC(=O)C(NO)C(Sc1ccccc1)c1ccc(OC)cc1 (stereo unspecified) | – | > 100 | – | > 100 | – | > 100 | – | > 100 | – | > 100 | – | > 100 | – | > 100 | – | > 100 | – | – | – | > 100
6 | COc1cc(C2C(C(=O)Nc3ccc([N+](=O)[O-])cc3)=C(C)NC(C)=C2C(=O)Nc2ccc([N+](=O)[O-])cc2)ccc1O | – | 41.1 | – | > 44.1 | – | 59.6 | – | 35 | – | > 100 | – | 77.8 | – | > 63.2 | – | 33.8 | – | > 70.8 | – | 50.8
7 | C[C@H](CS)C(=O)N1c2ccccc2C[C@H]1C(=O)O | – | > 100 | – | > 100 | – | – | – | > 100 | – | > 100 | – | > 100 | – | > 100 | – | > 100 | – | > 100 | – | > 100

From PubChem BioAssay (NCI)
